Laboratory results as given in US8969573B2, “Compounds for the inhibition of cellular proliferation” (President and Fellows of Harvard College, priority 2010, dated 2015).
Read-outs that look alike come from different tables or passages of the source.

Experiments:
eIF4E/eIF4G interaction = eIF4E/eIF4G interaction (Homo sapiens, UniProt P06730); assay: Fluorescent polarization assay; type: binding; settings: FITC eIF4G peptide and recombinant eIF4E, ratio to Z (4EGI-1 = 1)
Procedure: The difference between the two measurement yields net polarization which is considered full signal of the assay (100% control). […] The activity of compound at each concentration is determined by comparing the fluorescent polarization (FP) signal in the presence of compound to the control (no compound) value. The percent inhibition is =100-((FP compound/FP control)*100).

CRL2813 human melanoma = assay: SRB assay (inhibition of cell proliferation); type: cell-based
Text: (§1) A sulfur rhodamine B (SRB) assay was used to determine the extent of inhibition of cell proliferation as a measure of the anti-cancer activity of compounds of the present disclosure. The reagent SRB binds to cellular proteins and absorbs light proportionally to the cellular protein content, which is a surrogate marker for the number of cells. According to aspects of the present disclosure, the assay can be used to with any cancer cell line including breast cancer cell lines, prostate cancer cell lines, melanoma cell lines, lung cancer cell lines or any other cell lines of the cancers described herein.
(§2) The following protocol was used to determine the growth characteristics of certain cell lines CRL2351 human breast cancer and CRL2813 human melanoma from which cell lines having doubling times less than 48 hours were selected for growth inhibition experiments. […] The following materials were used in addition to the cancel cell lines: complete (5% fetal calf serum added) tissue culture media, 96-well tissue culture plates, Sulforhodamine B dye (SRB, 0.57% w/w), […] (TCA, 10%), acetic acid glacial (1%) and 10 mM Tris base. The cells were prepared and plated. Cancer cells were grown to 80% confluency in an incubator. The cells were trypsinized per standard protocol or as needed for each cell line. The trypsin was neutralized, cells dissociated and counted. Each cell line was plated at a density of 500, 1000 and 3000 cells per well (six wells each) in five separate plates. The cells were then returned to the incubator. One plate was then removed each day starting day one after plating. 100 μl of 10% TCA was then added and the cells were fixed at 4° C. until all the cells were fixed. […] The cell growth for vehicle treatment is considered to be 100%. The optical density was then measured and plotted for each starting cell number and cell line against time. The percent cell growth inhibition was calculated as 100 minus the % of control cell growth. The % of control cell growth=((mean OD sample−Mean OD day 0)/(mean OD vehicle−Mean OD day 0))*100.

[1] = test system: CRL2351 human breast cancer; assay: SRB assay (inhibition of cell proliferation); type: cell-based; settings: CRL2351 human breast cancer cells
Text: as §1, §2

[2] = CRL2813 human melanoma cells, summary table, read-out: IC50 [μM} CRL2813
[3] = summary table, read-out: IC50 [μM} CRL2351
[4] = Homo sapiens, CRL2813, CRL2813 human melanoma cells, summary table, read-out: IC50 [μM} CRL2813
[5] = Homo sapiens, summary table, read-out: IC50 [μM} CRL2351
[6] = Homo sapiens, Tables 1, 4, 5, read-out: SRB-IC50 (μM) 2351

Sequence of eIF4E/eIF4G interaction (P06730 whole entry): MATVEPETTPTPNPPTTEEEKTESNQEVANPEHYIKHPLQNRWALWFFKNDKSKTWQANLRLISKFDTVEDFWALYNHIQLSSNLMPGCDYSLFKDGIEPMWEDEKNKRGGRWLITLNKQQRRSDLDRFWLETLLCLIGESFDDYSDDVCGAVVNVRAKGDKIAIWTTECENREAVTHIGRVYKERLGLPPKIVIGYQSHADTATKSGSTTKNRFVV

SMILES | Fp (ratio to Z) (eIF4E/eIF4G interaction) | IC50 (CRL2813 human melanoma; [2]) | IC50 [1, 3] | IC50 (CRL2813 human melanoma; [4]) | IC50 [1, 5] | IC50 (CRL2813 human melanoma; CRL2813 human melanoma cells, Tables 1, 4, 5, read-out: SRB-IC50 (μM) 2813) | IC50 [1, 6] | IC50 (CRL2813 human melanoma; Homo sapiens, CRL2813, CRL2813 human melanoma cells, Tables 1, 4, 5, read-out: SRB-IC50 (μM) 2813)
COc1ccc(-c2nc(N/N=C(\Cc3ccccc3[N+](=O)[O-])C(=O)O)sc2-c2ccc(-c3ccccc3)cc2)cc1 [KY-435-F] | 0.5 | 3 ± 0.56 µM | 2.8 ± 0.73 µM |  |  |  |  | 
COc1ccc(-c2nc(NN=C(Cc3ccccc3[N+](=O)[O-])C(=O)O)sc2-c2ccc(OC)cc2)cc1 [KY-323A] | 0.67 | 1 µM | 0.6 µM |  |  |  |  | 
COc1ccc(-c2nc(NN=C(Cc3ccccc3[N+](=O)[O-])C(=O)O)sc2-c2ccc(-n3cc(-c4ccc(N)cc4)nn3)cc2)cc1 [KY-449] | 2.5 |  |  | 16 ± 1.8 µM | 17 µM |  |  | 
CCCc1sc(N/N=C(/Cc2ccccc2[N+](=O)[O-])C(=O)O)nc1-c1ccc(OC)cc1 [KY-582S] | 0.9 |  |  | 11.6 µM | 13.2 µM |  |  | 
COc1cc(-c2nc(NN=C(Cc3ccccc3[N+](=O)[O-])C(=O)O)sc2-c2ccc(Cl)c(Cl)c2)cc(OC)c1OC [KY-369S] | 0.75 |  |  | 2 ± 0.19 µM | 0.6 ± 0.02 µM |  |  | 
[N-]=[N+]=NC/C(=N\Nc1nc(-c2ccc(Cl)c(Cl)c2)cs1)C(=O)O [KY-757-p, (E)-3-azido-2-(2-(4-(3,4-dichlorophenyl)thiazol-2-yl)hydrazono) propanoic acid] | 1 |  |  | > 20 µM | > 20 µM |  |  | 
COc1ccc(-c2csc(NN=C(Cc3ccccc3[N+](=O)[O-])C(=O)O)n2)cc1 [EK-B2] | 0.86 |  |  | 11 µM | 7 µM |  |  | 
[N-]=[N+]=NCCCOc1ccc(-c2csc(N/N=C(/Cc3ccccc3[N+](=O)[O-])C(=O)O)n2)cc1 [KH-167s] | 0.91 | 12 µM | 2.7 µM |  |  | 11.9 µM | 2.8 µM | 
COc1ccc(-c2nc(NN=C(Cc3ccccc3[N+](=O)[O-])C(=O)O)sc2-c2ccc(-n3cc(-c4cccc(O)c4)nn3)cc2)cc1 [KY-441] | 1.2 |  |  | 15 ± 1.12 µM | > 20 µM |  |  | 
COc1ccc(-c2sc(N/N=C(\Cc3ccccc3[N+](=O)[O-])C(=O)O)nc2-c2ccc(SC)cc2)cc1 [KY-611-pri-S] | 0.62 |  |  | 6.2 µM | 15.5 µM |  |  | 
O=C(O)C(Cc1ccccc1[N+](=O)[O-])=NNc1nc(-c2cc(Br)cc(Br)c2O)cs1 [KH-102BII] | 0.69 |  |  | > 20 µM | 9 µM |  |  | 
[N-]=[N+]=NCCOc1ccc(-c2csc(N/N=C(/Cc3ccccc3[N+](=O)[O-])C(=O)O)n2)cc1 [KH-166] | 0.80 |  |  | 9 µM | 5 µM |  | 5 µM | 9 µM
COc1ccc(-c2nc(N/N=C(/Cc3ccccc3[N+](=O)[O-])C(=O)O)sc2-c2cccc(-n3cc(CO)nn3)c2)cc1 [KY-467S] | 0.85 |  |  | > 20 µM | > 20 µM |  |  | 
O=C(O)/C(Cc1ccccc1)=N/Nc1nc(-c2ccc(Cl)c(Cl)c2)cs1 [KY-706bc] | 0.65 |  |  | 3 µM | 3.5 µM |  |  | 
COc1ccc(-c2sc(N/N=C(/Cc3ccccc3[N+](=O)[O-])C(=O)O)nc2-c2ccc(-c3ccccc3)cc2)cc1 [KY-577S, 2-{[4-Biphenyl-4-yl-5-(4-methoxy-phenyl)-thiazol-2-yl]-hydrazono}-3-(2-nitro-phenyl)-propionic acid] | 1 | 3.5 µM | 11.7 µM |  |  |  |  | 
O=C(O)/C(=N\Nc1nc(-c2ccc(Cl)c(Cl)c2)cs1)c1c[nH]c2ccccc12 [KY-689, {[4-(3,4-Dichloro-phenyl)-thiazol-2-yl]-hydrazono}-(1H-indol-3-yl)-acetic acid] | 4 |  |  | > 20 µM | > 20 µM |  |  | 

SMILES | Fp (ratio to Z) (eIF4E/eIF4G interaction) | IC50 (CRL2813 human melanoma; [2]) | IC50 [1, 3] | IC50 (CRL2813 human melanoma; [4]) | IC50 [1, 5] | IC50 (CRL2813 human melanoma; CRL2813 human melanoma cells, Tables 1, 4, 5, read-out: SRB-IC50 (μM) 2813) | IC50 [1, 6] | IC50 (CRL2813 human melanoma; Homo sapiens, CRL2813, CRL2813 human melanoma cells, Tables 1, 4, 5, read-out: SRB-IC50 (μM) 2813)
COC(=O)C1CN(c2nc(-c3ccc(Cl)c(Cl)c3)cs2)CCN1c1ccccc1[N+](=O)[O-] (stereo not shown) [RYF-273] | 0.55 |  |  | 3.5 µM | 0.54 µM |  |  | 
COc1ccc(-c2nc(NN=C(Cc3ccccc3[N+](=O)[O-])C(=O)O)sc2-c2ccc(OC)cc2)cc1 [KY-323B] | 0.6 | 7 ± 2.6 µM | 20 ± 3.7 µM |  |  |  |  | 
O=C(O)C(Cc1ccccc1[N+](=O)[O-])=NNc1nc(-c2cc(Br)cc(Br)c2O)cs1 [KH-102BIIs] | 0.69 | 20.5 µM | 18 µM |  |  |  |  | 
O=C(O)/C(=N\Nc1nc(-c2ccc(Cl)c(Cl)c2)cs1)c1ccccc1[N+](=O)[O-] [KY-782-Z, (Z)-2-(2-(4-(3,4-dichlorophenyl)thiazol-2-yl)hydrazono)-2-(2-nitrophenyl)acetic acid] | 0.83 | 10 µM |  |  | 13 µM |  |  | 
O=C(O)/C(Cc1ccc([N+](=O)[O-])cc1)=N\Nc1nc(-c2ccc(Cl)c(Cl)c2)cs1 [KY-755-p] | 1 |  |  | 5 µM | 15 µM |  |  | 
Cc1ccc(-c2nc(NN=C(Cc3ccccc3[N+](=O)[O-])C(=O)O)sc2-c2ccc(Cl)cc2)cc1 [KY-351PR] | 1.1 |  |  | 3 µM | 2.5 µM |  |  | 
COc1ccc(-c2nc(NN=C(Cc3ccccc3[N+](=O)[O-])C(=O)O)sc2-c2ccc(N=[N+]=[N-])cc2)cc1 [KY-379S] | 1.2 |  |  | 3 ± 0.2 µM | 1.2 ± 0.04 µM |  |  | 
O=C(O)/C(Cc1c(Br)cccc1[N+](=O)[O-])=N/Nc1nc(-c2ccc(Cl)c(Cl)c2)cs1 [RYF-339F] | 2.0 |  |  | 1 µM | < 0.54 µM |  |  | 
COc1ccc(-c2sc(NN=C(Cc3ccccc3[N+](=O)[O-])C(=O)O)nc2-c2ccc(OC)c(OC)c2)cc1 [KY-343PR] | 1 |  |  | > 20 µM | > 20 µM |  |  | 
COc1ccc(-c2nc(NN=C(Cc3ccccc3[N+](=O)[O-])C(=O)O)sc2-c2ccc(-n3cc(CCCO)nn3)cc2)cc1 [KY-447] | 1.5 |  |  | 17 ± 1.29 µM | > 20 µM |  |  | 
O=C(O)C(=NNc1nc(-c2ccc(Cl)c(Cl)c2)cs1)c1ccccc1[N+](=O)[O-] (stereo in doubt) [KY-782-E, (E)-2-(2-(4-(3,4-dichlorophenyl)thiazol-2-yl)hydrazono)-2-(2-nitrophenyl)acetic acid] | 0.94 | 2.2 µM | 10 µM |  |  |  |  | 
O=C(O)/C(Cc1ccccc1[N+](=O)[O-])=N/Nc1nc(-c2ccc(OC(F)(F)F)cc2)cs1 [KY-627S] | 0.65 |  |  | > 20 µM | > 20 µM |  |  | 
COc1ccc(-c2sc(N/N=C(/Cc3ccccc3[N+](=O)[O-])C(=O)O)nc2-c2ccc(C3CCCCC3)cc2)cc1 [KY-612S] | 1.8 | 0.3 µM |  |  | 11 µM |  |  | 
COc1ccc(-c2sc(N/N=C(/Cc3ccccc3[N+](=O)[O-])C(=O)O)nc2-c2ccc(OC(C)C)cc2)cc1 [KY-599S] | 1.3 |  |  | 3 µM | 8.7 µM |  |  | 
O=C(O)/C(Cc1ccccc1[N+](=O)[O-])=N/Nc1nc2c(s1)CCc1cc(Cl)c(Cl)cc1-2 [PC-159F, 2-(2-(7,8-dichloro-4,5-dihydronaphtho[1,2-d]thiazol-2-yl)hydrazono)-3-(2-nitrophenyl)propanoic acid] | 1.05 |  |  | < 1 µM | < 1 µM |  |  | 
COc1ccc(-c2nc(N/N=C(\Cc3ccccc3[N+](=O)[O-])C(=O)O)sc2-c2ccc(-c3ccccc3)cc2)cc1 [KY-435-S] | 2 | < 0.54 µM | < 0.54 µM |  |  |  |  | 
